Test results as given in patent US7396837B2, “Antitumoral analogs of lamellarins” (Pharma Mar, S.A.U., priority 2002, dated 2008).

How the values were obtained:
Assay type in all cases: cell-based
[1] = test system: IGROV-ET; experiment: SRB colorimetric cell growth inhibition assay, IGROV-ET (ET-743 resistant); details: Homo sapiens, IGROV-ET; for GI50: GI=growth inhibition, read-out: GI50 IGROV-ET; for CC50: LC=cell killing (cytotoxic effect), read-out: LC50 IGROV-ET; for IC (TGI): TGI=total growth inhibition (cytostatic effect), read-out: TGI IGROV-ET
Outline: (§1)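 Tested samples remained on human cancer cell cultures throughout the incubation; viable biomass was then stained with SRB and read colorimetrically.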

[2] = test system: IGROV; experiment: SRB colorimetric cell growth inhibition assay, IGROV; details: Homo sapiens, IGROV; for GI50: GI=growth inhibition, read-out: GI50 IGROV; for CC50: LC=cell killing (cytotoxic effect), read-out: LC50 IGROV; for IC (TGI): TGI=total growth inhibition (cytostatic effect), read-out: TGI IGROV
Outline: as §1

[3] = test system: H-MEC-1; experiment: SRB colorimetric cell growth inhibition assay, H-MEC-1; details: Homo sapiens, HMEC-1, H-MEC-1; for GI50: GI=growth inhibition; for IC (TGI): TGI=total growth inhibition (cytostatic effect), read-out: TGI H-MEC-1
Outline: (§2)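 Growth and viability quantified by sulforhodamine B staining in 96-well microplates. Triplicate wells give mean ± SD; derived endpoints are GI, TGI (cytostatic) and LC (cytotoxic).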

[4] = as above; details: human, H-MEC-1 cells, H-MEC-1; LC=cell killing (cytotoxic effect); read-out: LC50 H-MEC-1
Outline: as §2

[5] = test system: LoVo; experiment: SRB colorimetric cell growth inhibition assay, LoVo; details: Homo sapiens, LoVo; for GI50: GI=growth inhibition, read-out: GI50 LOVO; for CC50: cell killing (cytotoxic effect), read-out: LC50 LOVO; for IC (TGI): total growth inhibition (cytostatic effect), read-out: TGI LOVO
Outline: as §1

[6] = test system: SK-BR-3; experiment: SRB colorimetric cell growth inhibition assay, SK-BR-3; details: Homo sapiens, SK-BR-3, SK-BR-3; for GI50: GI=growth inhibition, read-out: GI50 SK-BR-3; for CC50: LC=cell killing (cytotoxic effect), read-out: LC50 SK-BR-3; for IC (TGI): TGI=total growth inhibition (cytostatic effect), read-out: TGI SK-BR-3
Outline: as §1

[7] = test system: A-549; experiment: SRB colorimetric cell growth inhibition assay, A-549; details: Homo sapiens, A549, A-549; for GI50: GI=growth inhibition, read-out: GI50 A-549; for CC50: cell killing (cytotoxic effect), read-out: LC50 A-549; for IC (TGI): total growth inhibition (cytostatic effect), read-out: TGI A-549
Outline: as §1

[8] = test system: PANC-1; experiment: SRB colorimetric cell growth inhibition assay, PANC-1; details: Homo sapiens, PANC-1, PANC-1; for GI50: GI=growth inhibition, read-out: GI50 PANC-1; for CC50: cell killing (cytotoxic effect), read-out: LC50 PANC-1; for IC (TGI): total growth inhibition (cytostatic effect), read-out: TGI PANC-1
Outline: as §1

[9] = test system: DU-145; experiment: SRB colorimetric cell growth inhibition assay, DU-145; details: Homo sapiens, DU-145, DU-145; for GI50: GI=growth inhibition, read-out: GI50 DU-145; for CC50: LC=cell killing (cytotoxic effect), read-out: LC50 DU-145; for IC (TGI): TGI=total growth inhibition (cytostatic effect), read-out: TGI DU-145
Outline: as §1

[10] = test system: SK-MEL-28; experiment: SRB colorimetric cell growth inhibition assay, SK-MEL-28; details: Homo sapiens, SK-MEL-28, MEL-28; for GI50: GI=growth inhibition, read-out: GI50 MEL-28; for CC50: LC=cell killing (cytotoxic effect), read-out: LC50 MEL-28; for IC (TGI): TGI=total growth inhibition (cytostatic effect), read-out: TGI MEL-28
Outline: as §1

[11] = test system: SKOV-3; experiment: SRB colorimetric cell growth inhibition assay, SKOV-3; details: Homo sapiens; for GI50: SK-OV-3, SKOV-3, GI=growth inhibition, read-out: GI50 SKOV-3; for CC50 / IC (TGI): SK-OV-3, SKOV-3; for CC50: LC=cell killing (cytotoxic effect), read-out: LC50 SKOV-3; for IC (TGI): TGI=total growth inhibition (cytostatic effect), read-out: TGI SKOV-3
Outline: as §2

[12] = test system: LoVo-Dox; experiment: SRB colorimetric cell growth inhibition assay, LoVo-Dox (MDR); details: Homo sapiens, LOVO-DOX; for GI50: GI=growth inhibition, read-out: GI50 LOVO-DOX; for CC50: cell killing (cytotoxic effect), read-out: LC50 LOVO-DOX; for IC (TGI): total growth inhibition (cytostatic effect), read-out: TGI LOVO-DOX
Outline: as §1

[13] = test system: HT-29; experiment: SRB colorimetric cell growth inhibition assay, HT-29; details: Homo sapiens, HT-29, HT-29; for GI50: GI=growth inhibition, read-out: GI50 HT-29; for CC50: cell killing (cytotoxic effect), read-out: LC50 HT-29; for IC (TGI): total growth inhibition (cytostatic effect), read-out: TGI HT-29
Outline: as §1

[14] = test system: K-562; experiment: SRB colorimetric cell growth inhibition assay, K-562; details: Homo sapiens, K562, K-562; for GI50: GI=growth inhibition, read-out: GI50 K-562; for CC50: cell killing (cytotoxic effect), read-out: LC50 K-562; for IC (TGI): total growth inhibition (cytostatic effect), read-out: TGI K-562
Outline: as §1

SMILES	GI50 [1] [µM]	CC50 [1] [µM]	IC (TGI) [1] [µM]	GI50 [2] [µM]	CC50 [2] [µM]	IC (TGI) [2] [µM]	GI50 [3] [µM]	IC (TGI) [3] [µM]	CC50 [4] [µM]	GI50 [5] [µM]	CC50 [5] [µM]	IC (TGI) [5] [µM]	GI50 [6] [µM]	CC50 [6] [µM]	IC (TGI) [6] [µM]	GI50 [7] [µM]	CC50 [7] [µM]	IC (TGI) [7] [µM]	GI50 [8] [µM]	CC50 [8] [µM]	further results
COc1cc(-c2c3n(c4c(=O)oc5cc(OC(=O)[C@H](C)N)c(OC)cc5c24)CCc2c-3cc(OC)c(OC)c2OC(=O)[C@H](C)N)ccc1OC(=O)[C@H](C)N [Compound 96]	2.69	9.2	5.6	1.2	7.54	3.01	0.381	9.2	9.2	2.28	9.2	9.2	0.417	5.47	1.86	4.97	9.2	9.2	1.68	9.2	IC (TGI) [8]: 5.65 µM; GI50 [9]: 4.26 µM; CC50 [9]: 9.2 µM; IC (TGI) [9]: 9.2 µM; GI50 [10]: 2.14 µM; CC50 [10]: 9.18 µM; IC (TGI) [10]: 4.43 µM; GI50 [11]: 4.2 µM; CC50 [11]: 9.2 µM; IC (TGI) [11]: 9.2 µM; GI50 [12]: 0.563 µM; CC50 [12]: 9.2 µM; IC (TGI) [12]: 2.07 µM; GI50 [13]: 9.2 µM; CC50 [13]: 9.2 µM; IC (TGI) [13]: 9.2 µM; GI50 [14]: 1.63 µM; CC50 [14]: 9.2 µM; IC (TGI) [14]: 4.43 µM
COc1cc(-c2c3c4cc(OC)c(OC(=O)[C@H](C)NC(=O)OC(C)(C)C)cc4oc(=O)c3n3ccc4c(OC(=O)[C@H](C)NC(=O)OC(C)(C)C)c(OC)c(OC)cc4c23)ccc1OC(=O)[C@H](C)NC(=O)OC(C)(C)C [Compound 97]	0.678	9.59	3.33	0.186	7.54	1.94	0.0337	0.0959	9.59	5.28	9.59	9.59	1.23	9.59	3.58	9.59	9.59	9.59	4.47	9.59	IC (TGI) [8]: 9.59 µM; GI50 [9]: 4.13 µM; CC50 [9]: 9.59 µM; IC (TGI) [9]: 9.59 µM; GI50 [10]: 0.262 µM; CC50 [10]: 9.59 µM; IC (TGI) [10]: 4.71 µM; GI50 [11]: 6.01 µM; CC50 [11]: 9.59 µM; IC (TGI) [11]: 9.59 µM; GI50 [12]: 5.29 µM; CC50 [12]: 9.59 µM; IC (TGI) [12]: 9.59 µM; GI50 [13]: 9.59 µM; CC50 [13]: 9.59 µM; IC (TGI) [13]: 9.59 µM; GI50 [14]: 3.2 µM; CC50 [14]: 9.59 µM; IC (TGI) [14]: 6.86 µM
